Laboratory results as given in the supplement of paper PMC10307832.

What was measured:
Experiment in all cases: relative viability (nuclei count vs DMSO), 5 days (fraction); higher = more cells survive
Elesclomol = compound: CN(NC(=O)CC(=O)NN(C)C(=S)c1ccccc1)C(=S)c1ccccc1 [Elesclomol]
Summary of the method: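 Viability was defined as treated-well nuclei divided by vehicle-well nuclei, with the median taken over replicate plates. Cells from lung cancer lines sat overnight at 37 °C in 1536-well plates, received five √10-spaced library-drug doses by pinning on vehicle-anchored plates, and grew 5 days without medium change before one-step fixation, permeabilisation and Hoechst staining, 4× imaging and MetaXpress nuclear counts. Only plates with control CV under 25% and at least one doubling were kept.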

Elesclomol + Navitoclax = compound: CN(NC(=O)CC(=O)NN(C)C(=S)c1ccccc1)C(=S)c1ccccc1 [Elesclomol] + CC1(C)CCC(c2ccc(Cl)cc2)=C(CN2CCN(c3ccc(C(=O)NS(=O)(=O)c4ccc(N[C@H](CCN5CCOCC5)CSc5ccccc5)c(S(=O)(=O)C(F)(F)F)c4)cc3)CC2)C1 [Navitoclax] (partner 0.5 µM)
Summary of the method: (§1)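 Relative viability divides the nuclei count in treated wells by that in vehicle wells. Lung cancer cell lines were seeded in 1536-well plates, dosed by pin tool the next day, and fixed and stained after 5 days in one step with final 0.05% Triton X-100, 1% formaldehyde and 1 ug/ml Hoechst. Dosing was a single drug or a fixed anchor-drug dose plus five library-drug doses (not always all listed) in √10 steps, and values are medians of duplicate plates imaged at 4×.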

Elesclomol + OSI-027 = compound: CN(NC(=O)CC(=O)NN(C)C(=S)c1ccccc1)C(=S)c1ccccc1 [Elesclomol] + COc1cccc2cc(-c3nc([C@H]4CC[C@H](C(=O)O)CC4)n4ncnc(N)c34)[nH]c12 [OSI-027] (partner 0.5 µM)
Summary of the method: as §1

Elesclomol + Decitabine = compound: CN(NC(=O)CC(=O)NN(C)C(=S)c1ccccc1)C(=S)c1ccccc1 [Elesclomol] + Nc1ncn([C@H]2C[C@H](O)[C@@H](CO)O2)c(=O)n1 [Decitabine] (partner 2 µM)
Summary of the method: as §1

Elesclomol + Pictilisib = compound: CN(NC(=O)CC(=O)NN(C)C(=S)c1ccccc1)C(=S)c1ccccc1 [Elesclomol] + CS(=O)(=O)N1CCN(Cc2cc3nc(-c4cccc5[nH]ncc45)nc(N4CCOCC4)c3s2)CC1 [Pictilisib] (partner 1 µM)
Summary of the method: as §1

Cell Line | relative viability (Elesclomol; 0.003162 µM) | relative viability (Elesclomol; 0.01 µM) | relative viability (Elesclomol; 0.03162 µM) | relative viability (Elesclomol; 0.1 µM) | relative viability (Elesclomol + Navitoclax; first compound 0.003162 µM) | relative viability (Elesclomol + Navitoclax; first compound 0.01 µM) | relative viability (Elesclomol + Navitoclax; first compound 0.03162 µM) | relative viability (Elesclomol + Navitoclax; first compound 0.1 µM) | relative viability (Elesclomol + OSI-027; first compound 0.003162 µM) | relative viability (Elesclomol + OSI-027; first compound 0.01 µM) | relative viability (Elesclomol + OSI-027; first compound 0.03162 µM) | relative viability (Elesclomol + OSI-027; first compound 0.1 µM) | relative viability (Elesclomol + Decitabine; first compound 0.003162 µM) | relative viability (Elesclomol + Decitabine; first compound 0.01 µM) | relative viability (Elesclomol + Decitabine; first compound 0.03162 µM) | relative viability (Elesclomol + Decitabine; first compound 0.1 µM) | relative viability (Elesclomol + Pictilisib; first compound 0.003162 µM) | relative viability (Elesclomol + Pictilisib; first compound 0.01 µM) | relative viability (Elesclomol + Pictilisib; first compound 0.03162 µM) | relative viability (Elesclomol + Pictilisib; first compound 0.1 µM)
NCI-H838 | 0.959 | 0.883 | 0.792 | 0.454 | 1.15 | 1.06 | 0.962 | 0.739 | 0.331 | 0.407 | 0.378 | 0.286 | 0.469 | 0.433 | 0.403 | 0.249 | 0.465 | 0.413 | 0.439 | 0.357
NCI-H1355 | 1.02 | 0.685 | 0.593 | 0.297 | 1.03 | 0.705 | 0.469 | 0.14 | 0.448 | 0.266 | 0.27 | 0.186 | 0.352 | 0.336 | 0.268 | 0.2 | 0.549 | 0.191 | 0.257 | 0.178
NCI-H1395 | 0.972 | 0.475 | 0.279 | 0.265 | 1.09 | 0.475 | 0.286 | 0.469 | 0.706 | 0.435 | 0.398 | 0.227 | 0.754 | 0.532 | 0.318 | 0.249 | 0.65 | 0.324 | 0.292 | 0.436
NCI-H1437 | 0.879 | 0.635 | 0.504 | 0.47 | 1.02 | 0.67 | 0.474 | 0.455 | 0.71 | 0.568 | 0.406 | 0.363 | 0.602 | 0.493 | 0.438 | 0.337 | 0.391 | 0.321 | 0.198 | 0.137
NCI-H1650 | 0.394 | 0.281 | 0.16 | 0.114 | 0.734 | 0.331 | 0.168 | 0.0893 | 0.221 | 0.201 | 0.151 | 0.132 | 0.306 | 0.219 | 0.16 | 0.0942 | 0.185 | 0.177 | 0.18 | 0.15
NCI-H1651 | 0.903 | 0.954 | 0.612 | 0.369 | 0.971 | 0.525 | 0.137 | 0.0728 | 0.523 | 0.527 | 0.259 | 0.102 | 0.596 | 0.608 | 0.577 | 0.4 | 0.454 | 0.323 | 0.177 | 0.0888
NCI-H1666 | 1.01 | 0.933 | 0.755 | 0.542 | 0.825 | 0.299 | 0.227 | 0.15 | 0.807 | 0.654 | 0.464 | 0.465 | 0.739 | 0.717 | 0.522 | 0.47 | 0.359 | 0.267 | 0.243 | 0.195
